Key:
[1] = Cytotoxicity against human HepG2.2.15.7 cells assessed as reduction in cell viability after 9 days by tetrazolium dye based method
Hepatitis B virus = assay: Antiviral activity against HBV infected in human HepG2.2.15.7 cells assessed as inhibition of viral DNA level after 9 days by real time PCR method; format: functional, organism-based; details: HepG2.2.15.7, 216 h

SMILES | CC50 at 216 h [1] [µM] | EC50 (Hepatitis B virus) [µM]
Cc1nc(N)c2c(Br)nn([C@@H]3C[C@@H](CO)[C@@H](O)[C@H]3O)c2n1 | > 100 | > 100
Cc1ncnc2c1c(Br)cn2[C@@H]1C[C@@H](CO)[C@@H](O)[C@H]1O | > 100 | 6.6
Nc1ccn([C@@H]2CS[C@H](CO)O2)c(=O)n1 [LAMIVUDINE] | > 10 | 0.03

From ChEMBL document CHEMBL4425155, “Synthesis and anti-HBV activity of α-stereoisomer of aristeromycin based analogs” (Bioorg Med Chem Lett, 2016)
